PubChem BioAssay (NCI)
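1) Cells in 96-well plates. 2) Compound, 48 h, 5 concentrations. 3) Linear interpolation between surrounding doses. 4) Unreached endpoint = highest concentration. TGI: total growth inhibition.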

Experiments:
Assay in all cases: inhibition of tumour cell growth, NCI panel, 48 h
SK-MEL-5 melanoma = tested on: SK-MEL-5 melanoma
MALME-3M melanoma = tested on: MALME-3M melanoma
RPMI-8226 leukemia = tested on: RPMI-8226 leukemia
SK-MEL-28 melanoma = tested on: SK-MEL-28 melanoma
HS 578T breast = tested on: HS 578T breast
SN12C renal = tested on: SN12C renal
T-47D breast = tested on: T-47D breast
786-0 renal = tested on: 786-0 renal
IGROV1 ovarian = tested on: IGROV1 ovarian
OVCAR-8 ovarian = tested on: OVCAR-8 ovarian
MOLT-4 leukemia = tested on: MOLT-4 leukemia
MDA-N = tested on: MDA-N
OVCAR-5 ovarian = tested on: OVCAR-5 ovarian
HCC-2998 colon = tested on: HCC-2998 colon
NCI-H23 lung = tested on: NCI-H23 lung
PC-3 prostate = tested on: PC-3 prostate
MDA-MB-231 breast = tested on: MDA-MB-231 breast
LOX IMVI melanoma = tested on: LOX IMVI melanoma
K-562 leukemia = tested on: K-562 leukemia
U251 CNS = tested on: U251 CNS
HOP-62 NSCLC = tested on: HOP-62 NSCLC
DU-145 prostate = tested on: DU-145 prostate
SNB-75 CNS = tested on: SNB-75 CNS
SF-268 CNS = tested on: SF-268 CNS
BT-549 breast = tested on: BT-549 breast
SR leukemia = tested on: SR leukemia
HCT-116 colon = tested on: HCT-116 colon
NCI/ADR-RES ovarian = tested on: NCI/ADR-RES ovarian
NCI-H522 lung = tested on: NCI-H522 lung
ACHN renal = tested on: ACHN renal
NCI-H460 lung = tested on: NCI-H460 lung
MDA-MB-435 = tested on: MDA-MB-435
HL-60(TB) leukemia = tested on: HL-60(TB) leukemia
RXF 393 renal = tested on: RXF 393 renal
UACC-257 melanoma = tested on: UACC-257 melanoma
SNB-19 CNS = tested on: SNB-19 CNS
OVCAR-3 ovarian = tested on: OVCAR-3 ovarian
EKVX NSCLC = tested on: EKVX NSCLC
KM12 colon = tested on: KM12 colon
UACC-62 melanoma = tested on: UACC-62 melanoma
CCRF-CEM leukemia = tested on: CCRF-CEM leukemia
TK-10 renal = tested on: TK-10 renal
HCT-15 colon = tested on: HCT-15 colon
SF-295 CNS = tested on: SF-295 CNS
COLO 205 colon = tested on: COLO 205 colon
NCI-H226 lung = tested on: NCI-H226 lung
CAKI-1 renal = tested on: CAKI-1 renal
SF-539 CNS = tested on: SF-539 CNS
A549 NSCLC = tested on: A549 NSCLC
SW-620 colon = tested on: SW-620 colon
UO-31 renal = tested on: UO-31 renal
HT29 colon = tested on: HT29 colon
SK-OV-3 ovarian = tested on: SK-OV-3 ovarian
A498 renal = tested on: A498 renal
OVCAR-4 ovarian = tested on: OVCAR-4 ovarian
MCF7 breast = tested on: MCF7 breast
M14 melanoma = tested on: M14 melanoma
SK-MEL-2 melanoma = tested on: SK-MEL-2 melanoma

O=C(O)c1ccc(Nc2nc3cc(C(F)(F)F)ccc3nc2-c2ccccc2)cc1
TGI (SK-MEL-5 melanoma): > 100 µM
TGI (MALME-3M melanoma): > 100 µM
TGI (RPMI-8226 leukemia): 83.1 µM
TGI (SK-MEL-28 melanoma): > 100 µM
TGI (HS 578T breast): 49.4 µM
TGI (SN12C renal): 97.6 µM
TGI (T-47D breast): 35.1 µM
TGI (786-0 renal): 35 µM
TGI (IGROV1 ovarian): 35.9 µM
TGI (OVCAR-8 ovarian): > 100 µM
TGI (MOLT-4 leukemia): > 100 µM
TGI (MDA-N): > 100 µM
TGI (OVCAR-5 ovarian): 97.7 µM
TGI (HCC-2998 colon): 34.4 µM
TGI (NCI-H23 lung): > 100 µM
TGI (PC-3 prostate): 40.6 µM
TGI (MDA-MB-231 breast): > 100 µM
TGI (LOX IMVI melanoma): 32.5 µM
TGI (K-562 leukemia): 42.7 µM
TGI (U251 CNS): 34.2 µM
TGI (HOP-62 NSCLC): 43.1 µM
TGI (DU-145 prostate): 95.5 µM
TGI (SNB-75 CNS): 63.9 µM
TGI (SF-268 CNS): > 100 µM
TGI (BT-549 breast): > 100 µM
TGI (SR leukemia): > 100 µM
TGI (HCT-116 colon): 84.5 µM
TGI (NCI/ADR-RES ovarian): 70.2 µM
TGI (NCI-H522 lung): 32.8 µM
TGI (ACHN renal): > 100 µM
TGI (NCI-H460 lung): 75.7 µM
TGI (MDA-MB-435): > 100 µM
TGI (HL-60(TB) leukemia): > 100 µM
TGI (RXF 393 renal): 81.5 µM
TGI (UACC-257 melanoma): > 100 µM
TGI (SNB-19 CNS): > 100 µM
TGI (OVCAR-3 ovarian): 28.4 µM
TGI (EKVX NSCLC): 92 µM
TGI (KM12 colon): 35.3 µM
TGI (UACC-62 melanoma): 26.2 µM
TGI (CCRF-CEM leukemia): > 100 µM
TGI (TK-10 renal): 39.3 µM
TGI (HCT-15 colon): 30.6 µM
TGI (SF-295 CNS): 27.9 µM
TGI (COLO 205 colon): 37.9 µM
TGI (NCI-H226 lung): 69.6 µM
TGI (CAKI-1 renal): 50.4 µM
TGI (SF-539 CNS): 56.4 µM
TGI (A549 NSCLC): 40.3 µM
TGI (SW-620 colon): 30.9 µM
TGI (UO-31 renal): 36.9 µM
TGI (HT29 colon): 28.2 µM

Cc1ccc(C)n1-n1c(-c2ccccc2)n[nH]c1=O
TGI (SK-MEL-5 melanoma): > 100 µM
TGI (MALME-3M melanoma): > 100 µM
TGI (RPMI-8226 leukemia): > 100 µM
TGI (SK-MEL-28 melanoma): > 100 µM
TGI (HS 578T breast): > 100 µM
TGI (SN12C renal): > 100 µM
TGI (T-47D breast): > 100 µM
TGI (786-0 renal): > 100 µM
TGI (SK-OV-3 ovarian): > 100 µM
TGI (IGROV1 ovarian): > 100 µM
TGI (A498 renal): > 100 µM
TGI (OVCAR-4 ovarian): > 100 µM
TGI (OVCAR-8 ovarian): > 100 µM
TGI (MOLT-4 leukemia): > 100 µM
TGI (MDA-N): 70.8 µM
TGI (OVCAR-5 ovarian): > 100 µM
TGI (HCC-2998 colon): > 100 µM
TGI (MCF7 breast): > 100 µM
TGI (PC-3 prostate): > 100 µM
TGI (MDA-MB-231 breast): > 100 µM
TGI (M14 melanoma): > 100 µM
TGI (LOX IMVI melanoma): > 100 µM
TGI (K-562 leukemia): > 100 µM
TGI (U251 CNS): > 100 µM
TGI (HOP-62 NSCLC): > 100 µM
TGI (DU-145 prostate): > 100 µM
TGI (SNB-75 CNS): > 100 µM
TGI (SF-268 CNS): > 100 µM
TGI (BT-549 breast): > 100 µM
TGI (SR leukemia): > 100 µM
TGI (HCT-116 colon): > 100 µM
TGI (NCI/ADR-RES ovarian): > 100 µM
TGI (NCI-H522 lung): > 100 µM
TGI (ACHN renal): > 100 µM
TGI (NCI-H460 lung): > 100 µM
TGI (MDA-MB-435): 53.6 µM
TGI (RXF 393 renal): > 100 µM
TGI (UACC-257 melanoma): > 100 µM
TGI (SNB-19 CNS): > 100 µM
TGI (OVCAR-3 ovarian): > 100 µM
TGI (EKVX NSCLC): > 100 µM
TGI (KM12 colon): > 100 µM
TGI (UACC-62 melanoma): > 100 µM
TGI (CCRF-CEM leukemia): > 100 µM
TGI (TK-10 renal): > 100 µM
TGI (HCT-15 colon): > 100 µM
TGI (SF-295 CNS): > 100 µM
TGI (COLO 205 colon): > 100 µM
TGI (NCI-H226 lung): > 100 µM
TGI (SK-MEL-2 melanoma): > 100 µM
TGI (CAKI-1 renal): > 100 µM
TGI (A549 NSCLC): > 100 µM
TGI (SW-620 colon): > 100 µM
TGI (UO-31 renal): > 100 µM
TGI (HT29 colon): > 100 µM
